For eleven molecules, IC50, EC50 and AC50 results are on record in ChEMBL document CHEMBL1201862, “PubChem BioAssay data set” (2004).

Assay [1] deals with T1, Sentrin-specific protease 8 (Homo sapiens, UniProt Q96LD8).
T1 sequence (Q96LD8 whole entry): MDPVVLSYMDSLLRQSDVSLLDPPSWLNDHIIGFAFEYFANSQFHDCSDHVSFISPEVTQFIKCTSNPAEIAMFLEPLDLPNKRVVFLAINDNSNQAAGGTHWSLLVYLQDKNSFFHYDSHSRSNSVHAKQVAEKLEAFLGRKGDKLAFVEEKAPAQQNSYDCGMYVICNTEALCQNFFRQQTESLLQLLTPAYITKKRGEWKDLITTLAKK
The format is functional.

Assay [2] concerns the target T2, Sentrin-specific protease 6 (Homo sapiens, UniProt Q9GZR1).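 Note: Luminescence-based dose-response confirmatory assay of SENP6 inhibition, following up an ultra-high-throughput screen.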
T2 sequence (Q9GZR1 whole entry): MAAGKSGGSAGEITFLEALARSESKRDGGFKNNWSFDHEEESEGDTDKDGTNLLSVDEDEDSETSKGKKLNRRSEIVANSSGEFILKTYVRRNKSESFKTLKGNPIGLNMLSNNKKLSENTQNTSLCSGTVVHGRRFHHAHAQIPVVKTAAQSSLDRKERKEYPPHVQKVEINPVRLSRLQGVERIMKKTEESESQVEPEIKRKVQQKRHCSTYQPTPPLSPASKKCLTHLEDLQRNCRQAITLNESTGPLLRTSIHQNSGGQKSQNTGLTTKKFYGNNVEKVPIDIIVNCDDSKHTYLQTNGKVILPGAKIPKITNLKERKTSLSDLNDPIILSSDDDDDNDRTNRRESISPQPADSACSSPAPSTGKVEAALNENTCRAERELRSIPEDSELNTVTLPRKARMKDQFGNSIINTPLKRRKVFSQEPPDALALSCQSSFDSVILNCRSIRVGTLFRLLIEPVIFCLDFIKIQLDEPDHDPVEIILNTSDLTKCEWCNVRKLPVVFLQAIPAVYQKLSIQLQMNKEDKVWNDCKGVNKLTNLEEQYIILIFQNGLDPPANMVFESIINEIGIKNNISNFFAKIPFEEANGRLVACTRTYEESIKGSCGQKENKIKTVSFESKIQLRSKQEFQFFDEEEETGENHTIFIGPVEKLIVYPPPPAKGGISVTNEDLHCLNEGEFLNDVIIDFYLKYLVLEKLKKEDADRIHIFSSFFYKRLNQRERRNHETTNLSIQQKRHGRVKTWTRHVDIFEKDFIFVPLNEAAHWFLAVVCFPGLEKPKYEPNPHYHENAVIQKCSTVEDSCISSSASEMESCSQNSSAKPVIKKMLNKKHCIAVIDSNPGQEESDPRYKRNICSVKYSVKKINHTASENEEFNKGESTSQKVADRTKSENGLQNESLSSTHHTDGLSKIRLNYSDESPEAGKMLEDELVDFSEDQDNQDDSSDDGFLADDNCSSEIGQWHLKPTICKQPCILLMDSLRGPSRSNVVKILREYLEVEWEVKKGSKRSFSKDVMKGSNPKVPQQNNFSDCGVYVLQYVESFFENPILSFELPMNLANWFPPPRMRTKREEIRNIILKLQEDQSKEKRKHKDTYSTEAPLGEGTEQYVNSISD
Type of assay: functional.

The target in assay [3] is T3, Sentrin-specific protease 7 (Homo sapiens, UniProt Q9BQF6).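 Note: Luminescence-based dose-response confirmation of ultra-high-throughput screening hits, measuring inhibition of SENP7.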
T3 sequence (Q9BQF6 whole entry): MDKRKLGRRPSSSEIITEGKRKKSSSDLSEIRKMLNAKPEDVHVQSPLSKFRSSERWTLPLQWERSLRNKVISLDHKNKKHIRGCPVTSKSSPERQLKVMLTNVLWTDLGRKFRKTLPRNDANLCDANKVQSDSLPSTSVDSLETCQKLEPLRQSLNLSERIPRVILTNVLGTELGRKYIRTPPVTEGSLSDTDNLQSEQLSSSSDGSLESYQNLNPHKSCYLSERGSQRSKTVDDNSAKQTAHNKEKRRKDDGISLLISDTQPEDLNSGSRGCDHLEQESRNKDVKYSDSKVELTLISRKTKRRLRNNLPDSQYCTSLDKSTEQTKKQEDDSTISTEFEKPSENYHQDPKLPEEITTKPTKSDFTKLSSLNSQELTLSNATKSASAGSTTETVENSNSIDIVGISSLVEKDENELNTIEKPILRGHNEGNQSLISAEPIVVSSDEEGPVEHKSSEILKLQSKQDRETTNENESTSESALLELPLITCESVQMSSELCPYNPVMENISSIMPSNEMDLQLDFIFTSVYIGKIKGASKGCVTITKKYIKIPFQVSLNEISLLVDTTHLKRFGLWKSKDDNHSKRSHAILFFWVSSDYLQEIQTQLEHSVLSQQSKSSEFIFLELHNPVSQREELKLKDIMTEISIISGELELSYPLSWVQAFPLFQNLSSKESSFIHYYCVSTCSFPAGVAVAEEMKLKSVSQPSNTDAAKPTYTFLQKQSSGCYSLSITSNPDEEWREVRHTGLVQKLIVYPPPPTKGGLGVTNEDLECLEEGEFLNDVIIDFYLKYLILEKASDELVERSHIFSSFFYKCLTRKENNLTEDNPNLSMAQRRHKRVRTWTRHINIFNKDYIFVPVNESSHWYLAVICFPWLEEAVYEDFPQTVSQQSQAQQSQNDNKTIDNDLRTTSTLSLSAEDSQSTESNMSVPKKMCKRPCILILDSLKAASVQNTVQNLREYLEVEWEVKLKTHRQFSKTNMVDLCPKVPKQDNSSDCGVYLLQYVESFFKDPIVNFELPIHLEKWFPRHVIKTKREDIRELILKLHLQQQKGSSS
Type of assay: functional.

Assay [4] has as its target T4, Caspase-3 (Homo sapiens, UniProt P42574).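 Note: Dose-response selectivity test against caspase-3 for candidate inhibitors of sentrin-specific proteases (SENPs).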
T4 sequence (P42574 whole entry): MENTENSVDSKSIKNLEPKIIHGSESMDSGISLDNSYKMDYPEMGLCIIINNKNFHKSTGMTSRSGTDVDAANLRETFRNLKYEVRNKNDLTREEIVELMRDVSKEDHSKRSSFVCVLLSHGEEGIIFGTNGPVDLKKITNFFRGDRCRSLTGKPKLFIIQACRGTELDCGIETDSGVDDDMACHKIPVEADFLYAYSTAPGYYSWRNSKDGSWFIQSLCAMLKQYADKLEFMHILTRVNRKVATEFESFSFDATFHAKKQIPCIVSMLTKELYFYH
Type of assay: functional.

The test system of assay [5] is Streptococcus sp. 'group A'. Kind of assay: growth inhibition of control SK(-) GAS strain, dose response, counter-screen for streptokinase expression inhibitor project, luminescence, kanamycin, BacTiterGlo, confirmation (AID 1900). Type of assay: functional, organism-based. For orientation: A counterscreen serves to expose hits that act by an unwanted route or on another target.

Assay [6] deals with Streptococcus. Kind of assay: Group A Streptococcus viability loss, dose response, counter-screen for streptokinase expression inhibitor project, luminescence, BacTiterGlo (AID 1915).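 Note: potency for reduction of bacterial viability or growth.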 The format is functional, organism-based.
Assay [7] in a line: NIH-3T3 fibroblast cytotoxicity, dose response, cytotoxicity control, cell-based, fluorescence, Alamar Blue, secondary assay (AID 2327).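 Note: NIH-3T3 mouse fibroblasts cultured with fluconazole at 8 µg/mL.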 The format is functional. For orientation: The colour change of resazurin is a common sign of viable cells or microbes.
Assay [8] in a line: C. albicans growth with fluconazole, confirmation, fluorescence, retest (AID 2467). The format is functional, cell-based.
Assay [9] addresses T5, Streptokinase A (Streptococcus pyogenes serotype M1, UniProt P10520).
T5 sequence (P10520 whole entry): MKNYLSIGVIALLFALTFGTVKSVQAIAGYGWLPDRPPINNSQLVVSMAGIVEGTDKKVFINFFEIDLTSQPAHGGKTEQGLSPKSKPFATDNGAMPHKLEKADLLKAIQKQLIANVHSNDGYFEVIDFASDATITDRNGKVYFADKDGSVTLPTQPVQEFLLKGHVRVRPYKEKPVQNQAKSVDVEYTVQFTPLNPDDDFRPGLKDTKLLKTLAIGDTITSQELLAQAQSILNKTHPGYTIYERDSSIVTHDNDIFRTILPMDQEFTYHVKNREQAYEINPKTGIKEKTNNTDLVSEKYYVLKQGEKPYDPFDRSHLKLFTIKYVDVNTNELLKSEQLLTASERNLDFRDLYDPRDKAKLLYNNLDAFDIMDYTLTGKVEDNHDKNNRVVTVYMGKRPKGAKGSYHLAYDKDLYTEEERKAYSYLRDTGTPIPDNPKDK
The experiment in a line: S. pyogenes streptokinase expression inhibitors, potency, dose response, plasminogen activation absorbance, OD405 (AID 1914).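 Note: secreted streptokinase activity via plasminogen activation per viability signal from cell pellet.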 The format is functional, Streptococcus pyogenes M1 GAS.

Assay [10] addresses T6, Eukaryotic translation initiation factor 2-alpha kinase 3 (Homo sapiens, UniProt Q9NZJ5).
T6 sequence (Q9NZJ5 whole entry): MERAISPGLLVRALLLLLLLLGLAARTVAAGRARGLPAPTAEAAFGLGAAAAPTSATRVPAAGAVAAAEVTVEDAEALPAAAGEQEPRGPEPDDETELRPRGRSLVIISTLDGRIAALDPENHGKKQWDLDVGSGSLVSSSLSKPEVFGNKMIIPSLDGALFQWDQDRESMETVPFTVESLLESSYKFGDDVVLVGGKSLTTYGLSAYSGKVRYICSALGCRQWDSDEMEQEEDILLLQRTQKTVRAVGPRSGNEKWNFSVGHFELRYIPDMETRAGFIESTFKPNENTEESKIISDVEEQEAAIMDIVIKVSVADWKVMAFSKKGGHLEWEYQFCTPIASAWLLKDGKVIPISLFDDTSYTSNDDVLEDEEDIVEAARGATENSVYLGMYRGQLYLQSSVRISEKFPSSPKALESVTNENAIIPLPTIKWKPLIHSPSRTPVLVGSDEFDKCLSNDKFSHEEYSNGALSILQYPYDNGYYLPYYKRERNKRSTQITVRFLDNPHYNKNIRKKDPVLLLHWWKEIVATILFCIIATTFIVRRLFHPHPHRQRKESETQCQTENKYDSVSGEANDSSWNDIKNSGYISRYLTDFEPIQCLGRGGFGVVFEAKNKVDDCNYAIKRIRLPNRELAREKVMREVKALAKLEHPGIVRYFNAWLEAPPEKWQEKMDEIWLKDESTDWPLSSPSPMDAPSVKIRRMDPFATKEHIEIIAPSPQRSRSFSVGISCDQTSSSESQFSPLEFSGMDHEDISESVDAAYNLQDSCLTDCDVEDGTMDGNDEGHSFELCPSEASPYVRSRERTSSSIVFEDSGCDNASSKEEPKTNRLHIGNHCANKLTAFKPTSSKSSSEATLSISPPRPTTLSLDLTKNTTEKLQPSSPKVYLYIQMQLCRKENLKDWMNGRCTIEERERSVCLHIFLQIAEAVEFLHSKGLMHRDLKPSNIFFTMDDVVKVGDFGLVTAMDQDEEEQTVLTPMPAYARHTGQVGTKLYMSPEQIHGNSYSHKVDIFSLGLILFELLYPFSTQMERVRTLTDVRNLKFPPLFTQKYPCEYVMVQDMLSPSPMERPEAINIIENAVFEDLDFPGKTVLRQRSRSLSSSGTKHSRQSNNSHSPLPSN
The experiment in a line: Dose response cell-based high-throughput screening assay to measure PERK inhibition. [Related pubchem assays: 1416 ]. Type of assay: functional.

In assay [11] the target is T6, Eukaryotic translation initiation factor 2-alpha kinase 3. Kind of assay: Counterscreen assay for PERK inhibitors: Dose response cell-based high throughput screening assay to measure inhibition of PERK at 6 hours. [Related pubchem assays: 1522, 1416 ]. The format is functional.
Assay [12] can be described thus: inhibitors of HIV Env-driven cell fusion, dose response, cherry-pick (AID 652057). Type of assay: functional, cell-based.
Assay [13] deals with Nonstructural protein 1 (Influenza A virus, UniProt Q194T2). The format is functional, Influenza A virus (A/California/07/2009(H1N1)).
Nonstructural protein 1, sequence (Q194T2 whole entry): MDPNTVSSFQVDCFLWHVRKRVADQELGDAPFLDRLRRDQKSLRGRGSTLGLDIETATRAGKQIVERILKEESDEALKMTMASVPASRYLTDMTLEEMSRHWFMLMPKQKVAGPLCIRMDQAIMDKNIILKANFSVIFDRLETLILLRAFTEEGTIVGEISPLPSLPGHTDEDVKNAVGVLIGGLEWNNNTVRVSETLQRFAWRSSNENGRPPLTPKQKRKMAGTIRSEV

The source made the active and inactive calls.

On to `Cc1cc(C(=O)N=Nc2c(O)n(C)c3ccccc23)c(C)o1`, for which the IC50 in assay [1] is > 100 µM (inactive); in assay [2], 4.84 µM (active); in assay [3], 4.99 µM (active); in assay [4], 2.71 µM (active).

With `Oc1nc(Nc2ccccc2)sc1/C=C1\C=Nc2ccccc21`, the EC50 in assay [5] is 17.3 µM (active); in assay [6] it was 26.6 µM (active); in [7] it was 17.9 µM (active); in assay [8], 1.73 µM (active); in assay [9], > 150 µM (not active). Also, the IC50 was > 100 µM (inactive) in assay [1], > 100 µM (inactive) in assay [2], 6.51 µM (active) in [3] and 70.5 µM (active) in assay [4].

Consider `O=[N+]([O-])c1ccc(C2NS(=O)(=O)N=C3CCCCCN32)cc1` (stereo not given), for which the EC50 in [10] and in [11] was > 55.7 µM (not active) each time.

For `Cn1cc([N+](=O)[O-])c(C(=O)NCc2ccco2)n1`, the EC50 in assay [10] and in [11] was > 55.7 µM (not active) each time.

Turning to `C[C@@H]1CN([C@H](C)CO)C(=O)c2cccc(NS(=O)(=O)c3ccc(F)cc3)c2O[C@@H]1CN(C)Cc1ccc(C(F)(F)F)cc1`, the half-maximal activity concentration (AC50) in assay [12] is < 0.26 µM (active).

On to `O=C(CN1C(=O)COc2ccc(S(=O)(=O)N3CCOCC3)cc21)NCc1ccccn1`, for which the EC50 in assay [10] and in assay [11] was > 55.7 µM (not active) throughout.

As for `Cc1ccc(-c2cc(-c3cccc(F)c3)[nH]n2)c(O)c1`, the EC50 in assay [5] is 7.23 µM (active); in assay [6] it was > 150 µM (not active); in [9], 21.3 µM (active). The IC50 was 23.8 µM (active) in assay [1], 12.2 µM (active) in assay [2], 6.27 µM (active) in assay [3] and 47.2 µM (active) in assay [4].

`CN(C)c1ccc(N=Nc2cccc3ccoc23)cc1`: the IC50 in assay [1] is 8.97 µM (active); in [13] it was 39.3 µM (active); in assay [2], 8.07 µM (active); in assay [3], 3.81 µM (active); in [4], 14.8 µM (active).

On to `Cc1nnc(O)nc1NCCN(C)C`, for which the EC50 in [10] and in assay [11] was > 55.7 µM (not active) each time.

`Cc1ccc(COc2ccc(/C=N/O)cc2)cc1`: the IC50 was 23.5 µM (active) in assay [1], 14.6 µM (active) in assay [2], 5.63 µM (active) in assay [3] and 17.2 µM (active) in assay [4].

As for `CCOc1cc(C2NC(S)=NC(C)=C2C(=O)Nc2ccc(OC)cc2)ccc1O` (stereo not given), the half-maximal effective concentration (EC50) in [10] and in assay [11] was > 55.7 µM (not active) each time.

The IC50 is the point on the concentration scale where inhibition reaches its midpoint. The EC50 is the midpoint of the concentration-response curve. By AC50 is commonly meant the concentration giving half of the maximal activity seen.
